Results on 20 compounds are retold here after ChEMBL document CHEMBL3217614, “HIV-1 protease inhibitors with a tertiary alcohol containing transition-state mimic and various P2 and P1 substituents” (Medchemcomm, 2011).

What is called Ki is the dissociation constant of the complex between target and ligand, obtained from inhibition or displacement. Read a high Ki as a looser hold on the target. One may read the EC50 as the concentration needed to bring the measured effect to its halfway point. Higher therefore signals weaker potency. Usually CC50 stands for the concentration giving 50% cytotoxicity. A higher CC50 goes with lower toxicity to the cells. In general, Papp A→B refers to the apparent permeability from the apical to the basolateral side of a cell layer.

The target in one series is Protease (Human immunodeficiency virus 1, UniProt Q9YQ12). Nature of the series: Inhibition of HIV1 protease expressed in Escherichia coli using DABCYL-gamma-Abu-Ser-Gln-ASN-Tyr-Pro-Ile-Val-Gln-EDANS as substrate after 20 mins by fluorescence assay.
In series [1] the test system is Human immunodeficiency virus. Nature of the series: Antiviral activity against HIV infected in human MT4 cells by XTT assay. In kind it is functional, organism-based. The settings on record: Human immunodeficiency virus 1, MT4.
A short description of series [2]: Cytotoxicity against human MT4 cells after 5 days by XTT assay. In kind it is cell-based. Background: Tetrazolium dyes change colour on reduction, which living cells bring about.
Series [3] in a line: Apparent permeability from apical to basolateral side in human Caco2 cells at 10 uM after 60 mins. The note with it: Caco-2. Type of series: ADME, cell-based. For orientation: Caco-2 monolayers are a common model of the intestinal barrier.
Series [4] can be described thus: Intrinsic clearance in human liver microsomes after 30 mins by LC-MS/MS analysis. Type of series: ADME. The note with it: read-out: CLH. On the technique in general: Liver microsomes are vesicles of endoplasmic reticulum, rich in cytochrome P450 enzymes.
The nature of series [5]: Apparent permeability from apical to basolateral side in human Caco2 cells at 10 uM after 30 to 120 mins. Type of series: ADME, cell-based. The note with it: Caco-2.
Series [6] in a line: Intrinsic clearance in human liver microsomes at 2 uM after 10 to 30 mins by LC-MS/MS analysis. In kind it is ADME. The settings on record: read-out: CLH.
The nature of series [7]: Intrinsic clearance in human liver microsomes after 0.5 to 30 mins by LC-MS/MS analysis. Type of series: ADME. The note with it: read-out: CLH.
In series [8] the test system is Human immunodeficiency virus 1. Kind of series: Antiviral activity against HIV1 RF infected in human MT2 cells after 4 to 7 days by ELISA. Type of series: functional, organism-based. The settings on record: Human immunodeficiency virus 1, RF.

SMILES strings stand for the structures.

Protease, sequence (Q9YQ12 whole entry): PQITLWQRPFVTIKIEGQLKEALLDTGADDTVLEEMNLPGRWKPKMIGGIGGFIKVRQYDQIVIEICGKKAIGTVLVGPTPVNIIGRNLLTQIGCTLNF

In the case of `CNC(=O)[C@@H](NC(=O)[C@@](O)(CCCN(Cc1ccc(-c2ccncc2)cc1)NC(=O)[C@@H](NC(=O)OC)C(C)(C)C)Cc1ccccc1)C(C)(C)C`, on Protease, the Ki was 0.0035 µM. In series [1], this compound registered an EC50 of 1.1 µM. The CC50 at 120 h in series [2] is > 50 µM. Also, the Papp A→B at 1 h, 10 µM in [3] worked out at 1.9 ×10⁻⁶ cm/s. In addition, the microsomal CLint in series [4] was 20 µL/min/mg.

Turning to `COC(=O)N[C@H](C(=O)NN(CCC[C@@](O)(Cc1ccccc1)C(=O)N[C@H]1c2ccccc2C[C@H]1O)Cc1ccc(-c2ccncc2)cc1)C(C)(C)C`, a half-maximal effect in series [1] (EC50) was put at 0.17 µM.

At Protease, `CNC(=O)[C@@H](NC(=O)[C@@](CCCN(Cc1ccc(Br)cc1)NC(=O)[C@@H](NC(=O)OC)C(C)(C)C)(Cc1ccccc1)O[Si](C)(C)C(C)(C)C)C(C)(C)C` showed a Ki of 2.7 µM. In addition, the EC50 in [1] was > 10 µM. Also, the CC50 at 120 h in series [2] was > 10 µM.

As to `CNC(=O)[C@@H](NC(=O)[C@](O)(CCCN(Cc1ccc(Br)cc1)NC(=O)[C@@H](NC(=O)OC)C(C)(C)C)Cc1ccccc1)C(C)(C)C`, the Ki on Protease is > 5 µM. The EC50 in series [1] is > 10 µM. Moreover, in series [2], the CC50 at 120 h is > 10 µM.

Regarding `COC(=O)N[C@H](C(=O)N[C@@H](Cc1ccccc1)[C@@H](O)CN(Cc1ccc(-c2ccccn2)cc1)NC(=O)[C@@H](NC(=O)OC)C(C)(C)C)C(C)(C)C` [ATAZANAVIR], in series [5], the Papp A→B at 10 µM amounted to 5.3 ×10⁻⁶ cm/s. Further, in series [6], the microsomal CLint at 2 µM was determined as 90 µL/min/mg. Moreover, the microsomal CLint in series [7] is 140 µL/min/mg. Also, a half-maximal effect in [8] (EC50) was put at 0.0039 µM.

On Protease, `CNC(=O)[C@@H](NC(=O)[C@@](O)(CCCN(Cc1ccc(C#Cc2cccnc2)cc1)NC(=O)[C@@H](NC(=O)OC)C(C)(C)C)Cc1ccccc1)C(C)(C)C` showed an inhibitory constant (Ki) of 0.0034 µM. In [1], this compound came in with an EC50 of 2.1 µM. Besides, the CC50 at 120 h in series [2] was > 50 µM. In series [3], the Papp A→B at 1 h, 10 µM is 6.1 ×10⁻⁶ cm/s. In addition, in series [4], the microsomal CLint is > 300 µL/min/mg.

At Protease, `CNC(=O)[C@@H](NC(=O)[C@@](O)(CCCN(Cc1ccc(-c2ccccc2)cc1)NC(=O)[C@@H](NC(=O)OC)C(C)(C)C)Cc1ccccc1)C(C)(C)C` came in with a Ki of 0.0046 µM. Further, a half-maximal effect in [1] (EC50) was put at 1 µM. Besides, in series [2], the CC50 at 120 h is > 50 µM. For the same compound, the Papp A→B at 1 h, 10 µM in series [3] worked out at 21 ×10⁻⁶ cm/s. Also, the microsomal CLint in series [4] was > 300 µL/min/mg.

Consider `CNC(=O)[C@@H](NC(=O)[C@@](O)(CCCN(Cc1ccc(-c2cccnc2)cc1)NC(=O)[C@@H](NC(=O)OC)C(C)(C)C)Cc1ccccc1)C(C)(C)C`, for which, at Protease, the affinity corresponds to a Ki of 0.0031 µM. This compound gave an EC50 in [1] of 1 µM. Also, the half-maximal cytotoxic concentration (CC50) at 120 h in series [2] was > 50 µM. In [3], the Papp A→B at 1 h, 10 µM was < 1 ×10⁻⁶ cm/s. For the same compound, the microsomal CLint in [4] is 63 µL/min/mg.

The compound `CNC(=O)[C@@H](NC(=O)[C@@](O)(CCCN(Cc1ccc(C#Cc2ccncc2)cc1)NC(=O)[C@@H](NC(=O)OC)C(C)(C)C)Cc1ccccc1)C(C)(C)C` displayed a Ki at Protease of 0.0066 µM. In series [1], this compound came in with an EC50 of 8.9 µM. The CC50 at 120 h in series [2] was > 50 µM.

Consider `CNC(=O)[C@H](CC(C)C)NC(=O)[C@@](O)(CCCN(Cc1ccc(Br)cc1)NC(=O)[C@@H](NC(=O)OC)C(C)(C)C)Cc1ccccc1`, for which, on Protease, affinity was put at a Ki of 0.065 µM. Further, the EC50 in series [1] is > 10 µM. Also, in series [2], the CC50 at 120 h is > 10 µM.

Turning to `CNC(=O)[C@@H](NC(=O)[C@@](O)(CCCN(Cc1ccc(-c2ccsc2)cc1)NC(=O)[C@@H](NC(=O)OC)C(C)(C)C)Cc1ccccc1)C(C)(C)C`, the Ki on Protease was found to be 0.0036 µM. The same compound displayed an EC50 in [1] of 1 µM. The CC50 at 120 h in series [2] is > 50 µM.

For `COC(=O)N[C@H](C(=O)NN(CCC[C@@](O)(Cc1ccccc1)C(=O)N[C@H](CO)C(C)(C)C)Cc1ccc(Br)cc1)C(C)(C)C`, affinity at Protease was put at a Ki of 0.13 µM. For the same compound, the EC50 in [1] is > 10 µM. In addition, in series [2], the CC50 at 120 h was > 10 µM.

Regarding `CNC(=O)[C@@H](NC(=O)[C@@](O)(CCCN(Cc1ccc(-c2nccs2)cc1)NC(=O)[C@@H](NC(=O)OC)C(C)(C)C)Cc1ccccc1)C(C)(C)C`, the Ki at Protease was determined as 0.0035 µM. Also, in series [1], a half-maximal response (EC50) required 3.7 µM. Also, the CC50 at 120 h in series [2] is > 50 µM.

`CNC(=O)[C@@H](NC(=O)[C@@](O)(CCCN(Cc1ccc(Br)cc1)NC(=O)[C@@H](NC(=O)OC)C(C)(C)C)Cc1ccccc1)C(C)(C)C` gave a Ki at Protease of 0.0062 µM. Besides, the EC50 in series [1] came to 2 µM. Moreover, the CC50 at 120 h in series [2] is > 10 µM. Further, the Papp A→B at 1 h, 10 µM in series [3] is 4.6 ×10⁻⁶ cm/s. In addition, the microsomal CLint in series [4] stood at 180 µL/min/mg.

In turn, `CNC(=O)[C@H](C)NC(=O)[C@@](O)(CCCN(Cc1ccc(Br)cc1)NC(=O)[C@@H](NC(=O)OC)C(C)(C)C)Cc1ccccc1` had a Ki at Protease of 0.018 µM. The compound further had an EC50 in [1] of 2.6 µM. The CC50 at 120 h in series [2] was > 10 µM.

On Protease, `CNC(=O)[C@@H](NC(=O)[C@@](O)(CCCN(Cc1ccc(-c2ccccn2)cc1)NC(=O)[C@@H](NC(=O)OC)C(C)(C)C)Cc1ccccc1)C(C)(C)C` displayed a Ki of 0.0063 µM. The compound also showed an EC50 in series [1] of 4.9 µM. The CC50 at 120 h in series [2] is > 50 µM.

`CNC(=O)[C@@H](NC(=O)[C@@](O)(CCCN(Cc1ccc(-c2ccc3c(c2)OCO3)cc1)NC(=O)[C@@H](NC(=O)OC)C(C)(C)C)Cc1ccccc1)C(C)(C)C`: the Ki at Protease is 0.0048 µM. In [1], this compound gave an EC50 of 1.2 µM. Moreover, the CC50 at 120 h in series [2] was > 50 µM.

As to `CNC(=O)[C@H](Cc1ccccc1)NC(=O)[C@@](O)(CCCN(Cc1ccc(Br)cc1)NC(=O)[C@@H](NC(=O)OC)C(C)(C)C)Cc1ccccc1`, at Protease, the Ki is 0.17 µM. In addition, the EC50 in [1] was 8.2 µM. Further, in [2], the CC50 at 120 h was > 10 µM.

`CNC(=O)[C@@H](NC(=O)[C@@](O)(CCCN(Cc1ccc(C#Cc2ccccn2)cc1)NC(=O)[C@@H](NC(=O)OC)C(C)(C)C)Cc1ccccc1)C(C)(C)C` came in with a Ki at Protease of 0.007 µM. For the same compound, in [1], the EC50 worked out at 1.2 µM. In addition, the CC50 at 120 h in series [2] is > 50 µM.

Compound `CNC(=O)[C@@H](NC(=O)[C@@](O)(CCCN(Cc1ccc(Br)cc1)NC(=O)[C@@H](NC(=O)OC)C(C)(C)C)Cc1ccccc1)C(C)C` showed a Ki at Protease of 0.0027 µM. Moreover, the 50% cytotoxic concentration (CC50) at 120 h in [2] is > 10 µM.
